Measurements reported in ChEMBL document CHEMBL4613209, “Quinolone hybrids and their anti-cancer activities: An overview” (Eur J Med Chem, 2019).

Experiments:
Format in all cases: functional, cell-based
Hep 3B2 = test: Cytotoxicity against human Hep3B cells assessed as reduction in cell viability by MTT assay
CAPAN-1 = test: Cytotoxicity against human Capan1 cells assessed as reduction in cell viability by MTT assay
SMMC-7721 = test: Cytotoxicity against human SMMC7721 cells assessed as reduction in cell viability by MTT assay
L1210 = test: Cytotoxicity against mouse L1210 cells assessed as reduction in cell viability by MTT assay
HL-60 = test: Cytotoxicity against human HL60 cells assessed as reduction in cell viability by MTT assay

## CC1COc2c(N3CCN(C)CC3)c(F)cc3c(=O)c(-c4nc5scc(-c6ccc(Cl)cc6)n5n4)cn1c23 (stereo not drawn)
Hep 3B2
  IC50: 3.6 to 56.8 µM
CAPAN-1
  IC50: 3.6 to 56.8 µM
SMMC-7721
  IC50: 3.6 to 56.8 µM
L1210
  IC50: 3.6 to 56.8 µM
HL-60
  IC50: 3.6 to 56.8 µM

## CCn1cc(-c2nc(SCc3nnc(-c4ccc(Cl)cc4)o3)n(CN(C)C)n2)c(=O)c2cc(F)c(N3CCN(C)CC3)cc21
Hep 3B2
  IC50: 1.5 to 24.5 µM
CAPAN-1
  IC50: 1.5 to 24.5 µM
SMMC-7721
  IC50: 1.5 to 24.5 µM
L1210
  IC50: 1.5 to 24.5 µM
HL-60
  IC50: 1.5 to 24.5 µM

## CCn1cc(-c2nnc(SCc3nnc(-c4ccc(OC)c(OC)c4)o3)[nH]2)c(=O)c2cc(F)c(N3CCN(C)CC3)cc21
Hep 3B2
  IC50: 3.8 to 35.2 µM
CAPAN-1
  IC50: 3.8 to 35.2 µM
SMMC-7721
  IC50: 3.8 to 35.2 µM
L1210
  IC50: 3.8 to 35.2 µM
HL-60
  IC50: 3.8 to 35.2 µM

## CN1CCN(c2cc3c(cc2F)c(=O)c(-c2nc4scc(-c5ccccc5)n4n2)cn3C2CC2)CC1
Hep 3B2
  IC50: 3.6 to 56.8 µM
CAPAN-1
  IC50: 3.6 to 56.8 µM
SMMC-7721
  IC50: 3.6 to 56.8 µM
L1210
  IC50: 3.6 to 56.8 µM
HL-60
  IC50: 3.6 to 56.8 µM

## CC1COc2c(N3CCN(C)CC3)c(F)cc3c(=O)c(-c4nnc(SCc5nnc(-c6ccc([N+](=O)[O-])cc6)o5)o4)cn1c23 (stereo not drawn)
SMMC-7721
  IC50: 5.7 to 24.7 µM
L1210
  IC50: 5.7 to 24.7 µM
HL-60
  IC50: 5.7 to 24.7 µM

## CCn1cc(-c2nc3scc(-c4ccc(OC)c(O)c4)n3n2)c(=O)c2cc(F)c(N3CCN(C)CC3)cc21
Hep 3B2
  IC50: 3.6 to 56.8 µM
CAPAN-1
  IC50: 3.6 to 56.8 µM
SMMC-7721
  IC50: 3.6 to 56.8 µM
L1210
  IC50: 3.6 to 56.8 µM
HL-60
  IC50: 3.6 to 56.8 µM

## CN1CCN(c2cc3c(cc2F)c(=O)c(-c2nc4scc(-c5ccc([N+](=O)[O-])cc5)n4n2)cn3C2CC2)CC1
Hep 3B2
  IC50: 3.6 to 7.6 µM
CAPAN-1
  IC50: 3.6 to 7.6 µM
HL-60
  IC50: 3.6 to 7.6 µM

## COc1ccc(-c2csc3nc(-c4cn5c6c(c(N7CCN(C)CC7)c(F)cc6c4=O)OCC5C)nn23)cc1OC (stereo not drawn)
Hep 3B2
  IC50: 35.7 to 53.6 µM
CAPAN-1
  IC50: 35.7 to 53.6 µM
SMMC-7721
  IC50: 35.7 to 53.6 µM
L1210
  IC50: 35.7 to 53.6 µM
HL-60
  IC50: 35.7 to 53.6 µM

## Cc1ccc(-c2nnc(CSc3nnc(-c4cn(C5CC5)c5cc(N6CCN(C)CC6)c(F)cc5c4=O)o3)o2)cc1
SMMC-7721
  IC50: 2.4 to 32.4 µM
L1210
  IC50: 2.4 to 32.4 µM
HL-60
  IC50: 2.4 to 32.4 µM

## CCn1cc(-c2nc(SCc3nnc(-c4cc(OC)c(OC)c(OC)c4)o3)n(CN(C)C)n2)c(=O)c2cc(F)c(N3CCN(C)CC3)cc21
Hep 3B2
  IC50: 1.5 to 24.5 µM
CAPAN-1
  IC50: 1.5 to 24.5 µM
SMMC-7721
  IC50: 1.5 to 24.5 µM
L1210
  IC50: 1.5 to 24.5 µM
HL-60
  IC50: 1.5 to 24.5 µM

## CC1COc2c(N3CCN(C)CC3)c(F)cc3c(=O)c(-c4nc5scc(-c6ccc([N+](=O)[O-])cc6)n5n4)cn1c23 (stereo not drawn)
Hep 3B2
  IC50: 3.6 to 56.8 µM
CAPAN-1
  IC50: 3.6 to 56.8 µM
SMMC-7721
  IC50: 3.6 to 56.8 µM
L1210
  IC50: 3.6 to 56.8 µM
HL-60
  IC50: 3.6 to 56.8 µM

## CCn1cc(-c2nnc(SCc3nnc(-c4ccccc4OC)o3)[nH]2)c(=O)c2cc(F)c(N3CCN(C)CC3)cc21
Hep 3B2
  IC50: 3.8 to 35.2 µM
CAPAN-1
  IC50: 3.8 to 35.2 µM
SMMC-7721
  IC50: 3.8 to 35.2 µM
L1210
  IC50: 3.8 to 35.2 µM
HL-60
  IC50: 3.8 to 35.2 µM

## CCn1cc(-c2nc3scc(-c4ccc(Cl)cc4)n3n2)c(=O)c2cc(F)c(N3CCN(C)CC3)cc21
Hep 3B2
  IC50: 3.6 to 56.8 µM
CAPAN-1
  IC50: 3.6 to 56.8 µM
SMMC-7721
  IC50: 3.6 to 56.8 µM
L1210
  IC50: 3.6 to 56.8 µM
HL-60
  IC50: 3.6 to 56.8 µM

## COc1ccccc1-c1nnc(CSc2nnc(-c3cn(C4CC4)c4cc(N5CCN(C)CC5)c(F)cc4c3=O)o2)o1
SMMC-7721
  IC50: 2.4 to 32.4 µM
L1210
  IC50: 2.4 to 32.4 µM
HL-60
  IC50: 2.4 to 32.4 µM

## CCn1cc(-c2nc3scc(-c4ccc([N+](=O)[O-])cc4)n3n2)c(=O)c2cc(F)c(N3CCN(C)CC3)cc21
Hep 3B2
  IC50: 3.6 to 56.8 µM
CAPAN-1
  IC50: 3.6 to 56.8 µM
SMMC-7721
  IC50: 3.6 to 56.8 µM
L1210
  IC50: 3.6 to 56.8 µM
HL-60
  IC50: 3.6 to 56.8 µM

## CCn1cc(-c2nc(SCc3nnc(-c4ccc(OC)cc4)o3)n(CN(C)C)n2)c(=O)c2cc(F)c(N3CCN(C)CC3)cc21
Hep 3B2
  IC50: 1.5 to 24.5 µM
CAPAN-1
  IC50: 1.5 to 24.5 µM
SMMC-7721
  IC50: 1.5 to 24.5 µM
L1210
  IC50: 1.5 to 24.5 µM
HL-60
  IC50: 1.5 to 24.5 µM

## CCn1cc(-c2nc3scc(-c4ccccc4O)n3n2)c(=O)c2cc(F)c(N3CCN(C)CC3)cc21
Hep 3B2
  IC50: 3.6 to 56.8 µM
CAPAN-1
  IC50: 3.6 to 56.8 µM
SMMC-7721
  IC50: 3.6 to 56.8 µM
L1210
  IC50: 3.6 to 56.8 µM
HL-60
  IC50: 3.6 to 56.8 µM

## CCn1cc(-c2nc3scc(-c4ccc5c(c4)OCO5)n3n2)c(=O)c2cc(F)c(N3CCN(C)CC3)cc21
Hep 3B2
  IC50: 3.6 to 56.8 µM
CAPAN-1
  IC50: 3.6 to 56.8 µM
SMMC-7721
  IC50: 3.6 to 56.8 µM
L1210
  IC50: 3.6 to 56.8 µM
HL-60
  IC50: 3.6 to 56.8 µM

## CN1CCN(c2cc3c(cc2F)c(=O)c(-c2nnc(SCc4nnc(-c5ccc([N+](=O)[O-])cc5)o4)o2)cn3C2CC2)CC1
SMMC-7721
  IC50: 2.4 to 32.4 µM
L1210
  IC50: 2.4 to 32.4 µM
HL-60
  IC50: 2.4 to 32.4 µM

## CN1CCN(c2cc3c(cc2F)c(=O)c(-c2nc4scc(-c5ccc(Br)cc5)n4n2)cn3C2CC2)CC1
Hep 3B2
  IC50: 3.6 to 56.8 µM
CAPAN-1
  IC50: 3.6 to 56.8 µM
SMMC-7721
  IC50: 3.6 to 56.8 µM
L1210
  IC50: 3.6 to 56.8 µM
HL-60
  IC50: 3.6 to 56.8 µM

## CCn1cc(-c2nc3scc(-c4ccccc4)n3n2)c(=O)c2cc(F)c(N3CCN(C)CC3)cc21
Hep 3B2
  IC50: 3.6 to 56.8 µM
CAPAN-1
  IC50: 3.6 to 56.8 µM
SMMC-7721
  IC50: 3.6 to 56.8 µM
L1210
  IC50: 3.6 to 56.8 µM
HL-60
  IC50: 3.6 to 56.8 µM

## CCn1cc(-c2nc(SCc3nnc(-c4ccc(OC)c(OC)c4)o3)n(CN(C)C)n2)c(=O)c2cc(F)c(N3CCN(C)CC3)cc21
Hep 3B2
  IC50: 1.5 to 24.5 µM
CAPAN-1
  IC50: 1.5 to 24.5 µM
SMMC-7721
  IC50: 1.5 to 24.5 µM
L1210
  IC50: 1.5 to 24.5 µM
HL-60
  IC50: 1.5 to 24.5 µM

## CN1CCN(c2cc3c(cc2F)c(=O)c(-c2nnc(SCc4nnc(-c5ccccc5)o4)o2)cn3C2CC2)CC1
SMMC-7721
  IC50: 2.4 to 32.4 µM
L1210
  IC50: 2.4 to 32.4 µM
HL-60
  IC50: 2.4 to 32.4 µM
